Tests used:
[1] = test system: IL-17A-induced gene expression in lung tissue; assay: Intranasal injection of IL-17A (lung inflammation); assay type: in vivo; details: BALB/c mice, A18 4 μg per mouse intranasal with IL-17A 1 μg, 4 h
Method: Intranasal injection of IL-17A. Eight-week WT BALB/cJ female mice were subjected to intranasal injection of PBS, 1 μg of IL-17A with or without A18 (4 μg per mouse). […]
(§1) Real-time PCR. Total RNA was extracted from spinal cords and cultured astrocytes with TRIzol (Invitrogen) according to the manufacturer's instructions. All gene expression results are expressed as arbitrary units relative to expression of the gene encoding beta-actin.

[2] = test system: human mammary epithelial cells (HMEC); assay: IL-17A-induced CXCL1 (Groα) production, ELISA; assay type: cell-based; details: IL-17 100 ng/ml, 24 h
Source text: (§2) Reagents, cell culture and mice. Purified proteins of human IL-17A, human IL-17E (IL-25), human IL-17RA-Fc (extracellular domain 1-322 AA fused with Fc region of human IgG1 at the C-terminus), human IL-17RB-Fc (extracellular domain 1-289 AA fused with Fc region of human IgG1 at the C-terminus), human horseradish peroxidase (HRP)-conjugated IgG Fc secondary antibody were purchased from Sino Biological Inc. Human and mouse IL-17A and mouse IL-23 used for cell culture and animal injection were purchased from R&D Systems. Human mammary epithelial cells were maintained in Medium 171 plus mammary epithelial growth supplement (MEGS) purchased from Invitrogen, which contain bovine pituitary extract (BPE) (0.4% v/v), recombinant human insulin-like growth factor-I (1 μg/ml), hydrocortisone (0.5 μg/ml) and human epidermal growth factor (3 ng/ml). A549 cells were maintained in RPMI supplemented with 10% FCS and 100 U/ml penicillin and 100 μg/ml streptomycin. All mice were obtained from Jackson laboratory.
(§3) ELISA. Groα and IL-17A levels were assayed by ELISA kits (R&D systems) according to the manufacturer's instruction.

[3] = test system: IL-17F-induced gene expression; assay: IL-17F-induced gene expression in epithelial cells; assay type: cell-based, human; details: data not shown
D4M melanoma cells = assay: Experimental melanoma lung metastasis; assay type: in vivo; details: C57BL/6, 1×10^6 D4M cells tail vein, A18 60 μg/mouse daily, day 20
Method: Melanoma pulmonary metastasis is indicative of poor prognosis. The experimental lung metastasis has been used to test the ability of tumor cell migration, growth at distant sites, effects of drugs for treatment of lung metastasis. In this model, melanoma cells are injected through tail vein, and metastatic lesions can be established in the lung after 2-3 weeks. Here we used this experimental lung metastasis model to test the possible impact of A18 on melanoma re-establishment at distant lung tissue. […] melanoma cells (Jenkins et al., Pigment cell & melanoma research 27, 495-501 (2014)), (1×10^6 cells) were injected into C57BL/6 mouse through tail vein. The control group mice were injected with 200 μl PBS daily, the other group mice were injected with 60 μg A18/mouse daily. The Histological sections were obtained from lung tissue at day 20.

A549 cells = assay: IL-17A-induced CXCL1 (Groα) production, ELISA; assay type: cell-based, human; details: A549, IL-17 100 ng/ml, 24 h
Source text: as §2, §3

Th17-mediated EAE = assay: Adoptive transfer of EAE by Th17; assay type: in vivo, mouse
Method: Adoptive transfer of EAE by Th17. To prepare MOG-specific polarized Th17 cell populations, drain lymph node cells were prepared from 10-week WT C57BL/6 female mice immunized with MOG 35-55 at day 10 postimmunization. Cells were cultured for 5 days with MOG 35-55 at a concentration of […] under Th17 cell (20 ng/ml IL-23) polarizing condition. For induction of Th17-mediated EAE, 10-week WT C57BL/6J female mice were injected i.p. with 3.0×10^7 polarized MOG 35-55-specific Th17 cells/mouse with or without A18 (30 μg per mouse) 4 h after 500 Rad sublethal irradiation. A18 (30 μg per mouse) was continuously administered i.p. to the treated mice every other day after Th17 injection. At the peak of disease, the mice were sacrificed and perfused with PBS. The spinal cords were fixed in 10% formalin for staining with H&E. The Brains were removed for isolation of infiltrating cells.
Isolation and analysis of inflammatory cells from brain. Brains were homogenized in ice-cold tissue grinders and filtered through a […] cell strainer, and the cells were collected by centrifugation at 400 g for 5 min at 4° C. Cells were resuspended in 10 ml of 30% Percoll (Amersham Bioscience) and centrifuge onto a 70% Percoll cushion in 15 ml tubes at 800 g for 30 min. Cells at the 30%-70% interface were collected and were subjected to flow cytometry. Fluorescence-conjugated CD4, CD8, CD45, Ly6G1 antibodies and isotype controls were purchased from BD Biosciences. F4/80 was obtained from Serotech.
as §1

HFD-induced AHR = assay: High-fat-diet-induced airway hyperreactivity; assay type: in vivo; details: A18 30 μg per mouse i.p., last 10 days of HFD
Method: High-fat-diet intervention. Starting at 4 weeks of age, WT C57BL/6 male mice were fed with 10 kcal % fat chow diet (CD) or a 60 kcal % HFD for 14 weeks. HFD+A18 group of mice were i.p. injected with A18 (30 μg per mouse) daily for 10 days before subjection to AHR measurement. Both CD (D12450B) or HFD (D12492) were obtained from Research Diets, Inc. Measurement of AHR. AHR was measured in mice in response to increasing doses of inhaled methacholine. Mice were anesthetized with i.p. pentobarbital sodium (60 mg/kg). After the intubation and the placement of a 19-gauge cannula through a tracheotomy incision, the cannula was affixed with a silk suture ligation. Mice were connected to a computer-controlled piston ventilator run at a rate of 150 breaths/min, a tidal volume of 0.2 ml, and a positive end-expiratory pressure of 2-3 cm H2O (Flexivent). Mice were then administered a muscle relaxant (pancuronium bromide, 800 mg/kg), and the lungs were expanded twice to total lung capacity at an amplitude pressure of 30 cm H2O. […] Lung resistance (RL) was obtained through forced oscillation technique by FlexiVent 5.2 (Flexivent; Scireq) software. Real-time PCR. […] All gene expression results are expressed as arbitrary units relative to expression of the gene encoding beta-actin.

[4] = test system: HDM-induced allergic airway disease; assay: House dust mite (HDM)-induced asthma; assay type: in vivo; details: C57BL/6 mice, A18 30 μg per mouse i.p. daily
Method: Measurement of AHR. AHR was measured in mice in response to increasing doses of inhaled methacholine. Mice were anesthetized with i.p. pentobarbital sodium (60 mg/kg). After the intubation and the placement of a 19-gauge cannula through a tracheotomy incision, the cannula was affixed with a silk suture ligation. Mice were connected to a computer-controlled piston ventilator run at a rate of 150 breaths/min, a tidal volume of 0.2 ml, and a positive end-expiratory pressure of 2-3 cm H2O (Flexivent). Mice were then administered a muscle relaxant (pancuronium bromide, […]), and the lungs were expanded twice to total lung capacity at an amplitude pressure of 30 cm H2O. Each mouse was aerosolized with methacholine in saline at doses of 0 mg/ml, 12.5 mg/ml, 25 mg/ml, and 50 mg/ml, delivered over 10 s through an in-line nebulizer. Lung resistance (RL) was obtained through forced oscillation technique by FlexiVent 5.2 (Flexivent; Scireq) software. House dust mite (HDM)-induced asthma. WT C57BL/6 mice were sensitized intratracheally (i.t.) with HDM (Dermatophagoides farina, 100 μg per mouse, Greer Laboratories) on day 0 and subsequently challenged (i.t.) with HDM (100 μg per mouse) from day 7 for 5 days. […] All gene expression results are expressed as arbitrary units relative to expression of the gene encoding beta-actin.

[5] = A18 30 μg per mouse i.p. every other day

Compound: Oc1cc(O)c2cc(O)c(-c3ccc(O)c(O)c3)[o+]c2c1.[Cl-] [A18, 2-(3,4-Dihydroxyphenyl)-3,5,7-trihydroxy-1-benzopyrylium chloride]
- IL-17A-induced gene expression in lung [1]: greatly inhibited
- IL-17A-mediated CXCL1 production [2]: greatly inhibited
- IL-17F-induced gene expression [3]: able to block
- Lung metastasis tumors (D4M melanoma cells): Fewer and smaller
- IL-17A-mediated CXCL1 production (A549 cells): greatly inhibited
- EAE disease severity (Th17-mediated EAE; [5]): attenuated
- Expression of IL-17-responsive inflammatory genes (CXCL1, IL6, GMCSF, Ccl20) in spinal cords (Th17-mediated EAE; [5]): greatly reduced
- Onset of EAE (Th17-mediated EAE; [5]): substantially delayed
- Infiltrated cells in spinal cords (Th17-mediated EAE; H&E staining): less infiltrated cells
- Infiltration of CD4+, CD8+ T cells and F4/80+ macrophages (Th17-mediated EAE; brain, flow cytometry): did not affect
- Recruitment of Ly6G+ neutrophils (Th17-mediated EAE; brain, flow cytometry): substantially reduced
- HFD-induced AHR (HFD-induced AHR; C57Bl/6 mice): substantially attenuated
- HFD-induced inflammatory gene expression in lung (HFD-induced AHR; C57Bl/6 mice): substantially attenuated
- HFD-induced production of IL-17A in the lung (HFD-induced AHR; cultured lung cells): no impact
- HDM-induced AHR [4]: reduced
- HDM-induced inflammatory gene expression [4]: reduced
